Laboratory results taken from patent US20070128217A1 (priority 2003, published 2007).

Legend:
[1] = test system: control sera (pooled serum of ten healthy LUMC hospital workers; commercial negative donor pooled serum from the Dutch bloodbank); assay type: binding, human; set-up: Binding of Control serum LUMC to linear peptides / Binding of Control serum Blood-bank to linear peptides / Binding of Control serum LUMC to looped peptides / Binding of Control Serum Blood-Bank to Looped peptides / Binding of Control serum LUMC to linear peptides of the protein M of SARS-CoV Urbani / Binding of Control serum Blood-bank to linear peptides of the protein M of SARS-CoV Urbani / Binding of Control serum LUMC to looped peptides of the protein M of SARS-CoV Urbani / Binding of Control Serum Blood-Bank to Looped peptides of the protein M of SARS-CoV Urbani: unit not given here
[2] = test system: rabbit serum obtained by immunizing a rabbit with the SARS-CoV strain Frankfurt 1; assay type: binding; set-up: Binding of a rabbit serum to linear peptides / Binding of a rabbit serum to looped peptides / Rabbit serum linear peptides / Rabbit serum looped peptides / Binding of a rabbit serum to linear peptides of protein N of SARS-CoV Urbani (Rabbit serum linear peptides) / Binding of a rabbit serum to looped/cyclic peptides of protein N of SARS-CoV Urbani (Rabbit serum looped peptides): unit not given here

Row | Sequence | Binding of Control Serum Blood-Bank to Looped peptides [1] | Binding of Control serum Blood-bank to linear peptides [1] | Binding of Control serum LUMC to linear peptides [1] | Binding of Control serum LUMC to looped peptides [1] | Binding of a rabbit serum to linear peptides [2] | Binding of a rabbit serum to looped peptides [2] | Rabbit serum linear peptides [2] | Rabbit serum looped peptides [2] | also measured
1 | PVKIDNASPASTVHA | 0.7 | 0.7 | 0.5 | 0.9 | 0.1 | 0.4 | – | – | –
2 | QECVRGTTVLLKEPC | 0.9 | 0.9 | 1.0 | 0.8 | – | – | 0.6 | 0.5 | –
3 | QHQNSKKTTKLVVIL | 0.6 | 0.5 | 0.6 | 0.5 | – | – | – | – | Recognition of the peptide by the rabbit serum [2]: recognized
4 | QLFKPLTKKNYSELD | – | – | – | – | – | – | 0.3 | 0.3 | Binding of Control Serum Blood-Bank to Looped peptides of the protein X3 of SARS-CoV Urbani [1]: 0.8; Binding of Control serum Blood-bank to linear peptides of the protein X3 of SARS-CoV Urbani [1]: 0.8; Binding of Control serum LUMC to linear peptides of the protein X3 of SARS-CoV Urbani [1]: 0.8; Binding of Control serum LUMC to looped peptides of the protein X3 of SARS-CoV Urbani [1]: 0.8
5 | QNSKKTTKLVVILRI | 0.7 | 0.5 | 0.8 | 0.7 | – | – | – | – | Recognition of the peptide by the rabbit serum [2]: recognized
6 | QPVKIDNASPASTVH | 0.6 | 0.6 | 0.6 | 0.6 | 0.1 | 0.4 | – | – | –
7 | RFFTLGSITAQPVKI | 0.8 | 1.0 | 1.1 | 0.7 | 1.7 | 0.5 | – | – | –
8 | RGTTVLLKEPCPSGT | 0.9 | 0.9 | 0.8 | 0.8 | – | – | 0.4 | 0.5 | –
9 | RMAGHPLGRCDIKDL | – | – | – | – | – | – | 0.1 | 0.6 | Binding of Control Serum Blood-Bank to Looped peptides of the protein M of SARS-CoV Urbani [1]: 0.9; Binding of Control serum Blood-bank to linear peptides of the protein M of SARS-CoV Urbani [1]: 0.7; Binding of Control serum LUMC to linear peptides of the protein M of SARS-CoV Urbani [1]: 0.7; Binding of Control serum LUMC to looped peptides of the protein M of SARS-CoV Urbani [1]: 0.8
10 | RTFRIAIWNLDVIIS | – | – | – | – | – | – | 0.3 | 0.4 | Binding of Control Serum Blood-Bank to Looped peptides of the protein X3 of SARS-CoV Urbani [1]: 0.9; Binding of Control serum Blood-bank to linear peptides of the protein X3 of SARS-CoV Urbani [1]: 0.7; Binding of Control serum LUMC to linear peptides of the protein X3 of SARS-CoV Urbani [1]: 0.6; Binding of Control serum LUMC to looped peptides of the protein X3 of SARS-CoV Urbani [1]: 0.8
11 | RWHTMVQTCTPNVTI | 0.9 | 0.9 | 0.6 | 0.9 | – | – | 0.5 | 0.6 | –
12 | SEDRHSGVKDYVVVH | 0.5 | 1.0 | 0.8 | 0.5 | 0.1 | 0.4 | – | – | –
13 | SGTYEGNSPFHPLAD | 0.8 | 0.8 | 0.8 | 0.8 | – | – | 0.6 | 0.6 | –
14 | SGVANPAMDPIYDEP | 0.5 | 0.4 | 0.3 | 0.5 | 1.1 | 0.6 | – | – | –
15 | SGVKDYVVVHGYFTE | 0.2 | 0.5 | 0.6 | 0.5 | 0.1 | 0.7 | – | – | –
16 | SITAQPVKIDNASPA | 0.4 | 0.6 | 0.6 | 0.4 | 0.1 | 0.4 | – | – | –
17 | SKKTTKLVVILRIGT | 0.7 | 0.6 | 0.8 | 0.7 | – | – | – | – | Recognition of the peptide by the rabbit serum [2]: recognized
18 | SRVKNLNSSEGVPDL | 0.5 | 0.9 | 0.7 | 0.7 | 0.7 | 0.0 | – | – | –
19 | STPKLKEDYQIGGYS | 0.2 | 0.7 | 0.7 | 0.3 | 0.1 | 0.3 | – | – | –
